Experimental data: ChEMBL document CHEMBL4000176, “Synthesis and SAR study of novel sarsasapogenin derivatives as potent neuroprotective agents and NO production inhibitors” (2017)
Calls of active or inactive are those of the source. The rule behind the calls is not given here.

Tests used:
RAW264.7 = experiment: Inhibition of LPS-induced NO production in mouse RAW264.7 cells at 10 umol/L after 24 hrs preincubated for 30 mins followed by LPS addition measured after 24 hrs by Griess assay relative to control; format: functional
PC-12 [1] = experiment: Neuroprotective activity against H2O2-induced cytotoxicity in rat PC12 cells assessed as cell viability at 10 umol/L preincubated for 2 hrs followed by H2O2 addition and measured after 24 hrs by MTT assay (reference value: 18.9 +/- 2.2%); format: functional; details: for viability at 10 µM: read-out: Activity
Mus musculus [2] = experiment: Cognition enhancing effect in scopolamine-induced cognitive impairment mouse model assessed as increase in time spent in target quadrant at 6 mg/kg, ig administered once in a day for 14 consecutive days followed by scopolamine challenge 1 hr post last dose by Morris water maze test; format: functional, organism-based
PC-12 [3] = experiment: Neuroprotective activity against H2O2-induced cytotoxicity in rat PC12 cells assessed as cell viability at 1 mM preincubated for 2 hrs followed by H2O2 addition and measured after 24 hrs by MTT assay (reference value: 18.9 +/- 2.2%); format: functional; details: read-out: Activity
Mus musculus [4] = experiment: Cognition enhancing effect in scopolamine-induced cognitive impairment mouse model assessed as increase in time spent in target quadrant at 3 mg/kg, ig administered once in a day for 14 consecutive days followed by scopolamine challenge 1 hr post last dose by Morris water maze test; format: functional, organism-based

Row | SMILES | inhibition at 10 µM (RAW264.7) [%] | viability at 10 µM (PC-12 [1]) [%] | further results
1 | CC(C)CNC(=O)O[C@H]1CC[C@@]2(C)[C@H](CC[C@@H]3[C@@H]2CC[C@]2(C)[C@@H]4[C@H](C[C@@H]32)O[C@]2(CC[C@H](C)CO2)[C@H]4C)C1 | 20.5 | 48.2 | Activity (Mus musculus [2]): Active
2 | C[C@H]1CC[C@@]2(OC1)O[C@H]1C[C@H]3[C@@H]4CC[C@@H]5C[C@@H](OC(=O)NCc6ccc(Cl)cc6)CC[C@]5(C)[C@H]4CC[C@]3(C)[C@H]1[C@@H]2C | 21.4 | 49.8 | –
3 | COc1ccc(CNC(=O)O[C@H]2CC[C@@]3(C)[C@H](CC[C@@H]4[C@@H]3CC[C@]3(C)[C@@H]5[C@H](C[C@@H]43)O[C@]3(CC[C@H](C)CO3)[C@H]5C)C2)cc1 | – | 21.5 | –
4 | C[C@H]1CC[C@@]2(OC1)O[C@H]1C[C@H]3[C@@H]4CC[C@@H]5C[C@@H](OC(=O)N6CCCC6)CC[C@]5(C)[C@H]4CC[C@]3(C)[C@H]1[C@@H]2C | – | 16.1 | –
5 | CC(=O)N[C@@H](CS)C(=O)O [ACETYLCYSTEINE] | – | – | viability at 1000 µM (PC-12 [3]): 35.3%
6 | C[C@H]1CC[C@@]2(OC1)O[C@H]1C[C@H]3[C@@H]4CC[C@@H]5C[C@@H](OC(=O)NCc6cccc(Cl)c6)CC[C@]5(C)[C@H]4CC[C@]3(C)[C@H]1[C@@H]2C | 19.3 | 40.3 | –
7 | C[C@H]1CC[C@@]2(OC1)O[C@H]1C[C@H]3[C@@H]4CC[C@@H]5C[C@@H](OC(=O)N6CCNCC6)CC[C@]5(C)[C@H]4CC[C@]3(C)[C@H]1[C@@H]2C | – | 3.4 | –
8 | C[C@H]1CC[C@@]2(OC1)O[C@H]1C[C@H]3[C@@H]4CC[C@@H]5C[C@@H](OC(=O)N6CCCCC6)CC[C@]5(C)[C@H]4CC[C@]3(C)[C@H]1[C@@H]2C | 28.7 | 20.1 | –
9 | C[C@H]1CC[C@@]2(OC1)O[C@H]1C[C@H]3[C@@H]4CC[C@@H]5C[C@@H](OC(=O)NCc6ccc(O)cc6)CC[C@]5(C)[C@H]4CC[C@]3(C)[C@H]1[C@@H]2C | – | 18.9 | –
10 | C[C@H]1CC[C@@]2(OC1)O[C@H]1C[C@H]3[C@@H]4CC[C@@H]5C[C@@H](OC(=O)NC6CCCCC6)CC[C@]5(C)[C@H]4CC[C@]3(C)[C@H]1[C@@H]2C | 4.6 | 52.2 | –
11 | C[C@H]1CC[C@@]2(OC1)O[C@H]1C[C@H]3[C@@H]4CC[C@@H]5C[C@@H](OC(=O)NCCN)CC[C@]5(C)[C@H]4CC[C@]3(C)[C@H]1[C@@H]2C | – | – | Activity (PC-12 [1]): inactive
12 | COc1cc2c(cc1OC)C(=O)C(CC1CCN(Cc3ccccc3)CC1)C2 (centres undefined) | – | – | Activity (Mus musculus [4]): Active
13 | C[C@H]1CC[C@@]2(OC1)O[C@H]1C[C@H]3[C@@H]4CC[C@@H]5C[C@@H](O)CC[C@]5(C)[C@H]4CC[C@]3(C)[C@H]1[C@@H]2C [SARSASAPOGENIN] | – | 3.3 | –
14 | C[C@H]1CC[C@@]2(OC1)O[C@H]1C[C@H]3[C@@H]4CC[C@@H]5C[C@@H](OC(=O)NC(=N)NC#N)CC[C@]5(C)[C@H]4CC[C@]3(C)[C@H]1[C@@H]2C | – | 23.5 | –
15 | C[C@H]1CC[C@@]2(OC1)O[C@H]1C[C@H]3[C@@H]4CC[C@@H]5C[C@@H](OC(=O)NN)CC[C@]5(C)[C@H]4CC[C@]3(C)[C@H]1[C@@H]2C | – | 11.2 | –
16 | C[C@H]1CC[C@@]2(OC1)O[C@H]1C[C@H]3[C@@H]4CC[C@@H]5C[C@@H](OC(=O)NCc6ccccc6)CC[C@]5(C)[C@H]4CC[C@]3(C)[C@H]1[C@@H]2C | 8.9 | 49.4 | –
17 | Cc1ccc(CNC(=O)O[C@H]2CC[C@@]3(C)[C@H](CC[C@@H]4[C@@H]3CC[C@]3(C)[C@@H]5[C@H](C[C@@H]43)O[C@]3(CC[C@H](C)CO3)[C@H]5C)C2)cc1 | – | 39.3 | –
